Experimental data as given in patent US20240398728A1, “STERILE TOPICAL SALINE PUTRESCINE FORMULATION AND USES THEREOF” (VIVIER CANADA INC., priority 2018, published 2024).

Experiments:
[1] = Solubility of ingredients in water noted during manufacturing; assay type: physicochemical; conditions: noted by Applicant during manufacturing
Text: (§1) As such, a first heating step (to about 40 degrees Celsius) while stirring, together with the sequential addition of Allantoin followed by HPMC allowed to improve the manufacturing procedure. Propanediol was also shown to help solubilization of active ingredients in the mixture. […] Once applied on the skin, the alcohol rapidly evaporates and promotes adherence of the film forming agent (e.g., PVP) on the skin. The presence of alcohol also promotes evaporation of water. Finally, because the presence of sodium salt (saline) could interfere with active ingredients in the formulation, it is preferentially added at the end of the process.
as §1, with “the PVP (which forms a film)” for “the film forming agent (e.g., PVP)”, “also promoted” for “also promotes”, “it was” for “it is”, “process. […]” for “process.”

epidermis of eroded skin = conditions: topical; animals and human epidermis; cited from earlier work
[2] = molecular target: fibroblast tissue transglutaminase (Homo sapiens, UniProt P21980); conditions: in vitro and in vivo, topical, compared to controls; cited from earlier work
Sequence of fibroblast tissue transglutaminase (P21980 whole entry): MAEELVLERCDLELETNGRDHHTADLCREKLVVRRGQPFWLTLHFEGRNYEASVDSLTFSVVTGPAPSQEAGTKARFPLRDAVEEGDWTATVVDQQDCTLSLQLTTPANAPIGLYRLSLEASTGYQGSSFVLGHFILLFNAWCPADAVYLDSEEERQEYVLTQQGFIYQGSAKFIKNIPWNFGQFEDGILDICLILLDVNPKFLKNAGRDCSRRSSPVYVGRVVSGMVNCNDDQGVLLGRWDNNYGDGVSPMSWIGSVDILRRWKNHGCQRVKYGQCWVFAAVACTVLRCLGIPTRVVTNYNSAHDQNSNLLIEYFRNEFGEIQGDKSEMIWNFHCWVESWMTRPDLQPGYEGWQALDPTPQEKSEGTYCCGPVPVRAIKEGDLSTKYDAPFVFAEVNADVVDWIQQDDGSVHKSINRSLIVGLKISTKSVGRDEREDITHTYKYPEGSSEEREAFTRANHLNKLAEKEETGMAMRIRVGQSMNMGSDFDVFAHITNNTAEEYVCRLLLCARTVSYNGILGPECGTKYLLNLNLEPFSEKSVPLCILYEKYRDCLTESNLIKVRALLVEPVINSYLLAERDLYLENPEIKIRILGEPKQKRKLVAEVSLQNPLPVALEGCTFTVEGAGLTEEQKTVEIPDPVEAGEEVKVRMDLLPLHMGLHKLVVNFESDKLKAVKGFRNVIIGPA

solubility in water [1] | Molecule | effect on the epidermis of eroded skin (barrier function, thickness of the stratum lucidum) (epidermis of eroded skin) | collagen cross-linking [2]
not very soluble in water | NC(=O)NC1NC(=O)NC1=O (stereo not shown) [Allantoin] |  | 
 | NCCCCN [putrescine, 1,4-diaminobutane] | increasing its barrier function as well as the thickness of the stratum lucidum | reduce collagen cross-linking in vitro and in vivo
not to be very soluble in water | Alpha Bisabolol |  | 
